Assay results taken from patent US11331282B2, “Ophthalmic composition containing clathrated antioxidant substance, and use thereof” (TK Health Research, Co. Ltd., priority 2017, dated 2022).

Experiments:
dry eye mouse model = assay: Change in tear volume by Schirmer's test in BAC dry eye mouse model; type: in vivo; settings: oral intake 200 mg/kg, two weeks, Day 28, Example 2
Method: A dry eye mouse model was created by eye drop treatment with benzalkonium chloride (also denoted as BAC).
After two weeks of continuous BAC treatment of mice, additional BAC treatment and eye drop treatment with water soluble astaxanthin or water soluble control (vehicle, γ-cyclodextrin only) were continued for two weeks. A group of mice applied with only PBS eye drops was used as a […].
The change in the tear volume in the mouse model was measured by Schirmer's test. The tear volume was determined as a relative tear volume (normal tear volume (filter moving distance): 7.17±1.35 mm) when normal tear volume was 100. Statistical processing: ANOVA, Student's t-test.
A dry eye mouse model was created in the same manner described in Example 1. […] The change in tear volume was measured by Schirmer's test in the same manner as Example 1. The goblet cells were also counted in the same manner as Example 1.
A dry eye mouse model was created in the same manner as Example 1. Subsequently, water-soluble astaxanthin eye drops and DMSO dissolved astaxanthin eye drops were applied for two weeks, and the change in the tear volume was measured by Schirmer's test in the same manner as Example 1. The goblet cells were also counted in the same manner as Example 1. […]
A change in the tear volume in the mouse model is measured by Schirmer's test. […]

[1] = tested on: ocular surface goblet cells of a dry eye mouse model; assay: Goblet cell count by PAS stain in BAC dry eye mouse model; type: in vivo; settings: oral administration for two weeks
Method: To find the effect of astaxanthin eye drops on ocular surface goblet cells of a dry eye mouse model, histological analysis was performed after two weeks of astaxanthin eye drops, and the number of goblet cells was counted by counting the cells stained red by PAS stain.
A dry eye mouse model was created in the same manner described in Example 1. Subsequently, astaxanthin eye drops were applied and astaxanthin was orally administered (oral intake astaxanthin, also denoted as oAsx) for two weeks. The change in tear volume was measured by Schirmer's test in the same manner as Example 1. The goblet cells were also counted in the same manner as Example 1.
A dry eye mouse model was created in the same manner as Example 1. Subsequently, water-soluble astaxanthin eye drops and DMSO dissolved astaxanthin eye drops were applied for two weeks, and the change in the tear volume was measured by Schirmer's test in the same manner as Example 1. The goblet cells were also counted in the same manner as Example 1.
A change in the tear volume in the mouse model is measured by Schirmer's test. The tear volume is determined as a relative tear volume (normal tear volume (filter moving distance): 7.17±1.35 mm) when normal tear volume is 100. Statistical processing: ANOVA, Student's t-test. […]

[2] = Solubilization testing by filtration (colour of filtrate, 0.45 μm filter); type: physicochemical
Method: The astaxanthin concentration in the filtrate can be measured by measuring the absorbance of the wavelength 478 nm using an absorption (spectrophoto)meter. […] Astaxanthin was dissolved in DMSO, and the final concentration was adjusted to 6.25, 12.5, 25, 50, and 100 μg/ml with Milli-Q water. After 0 point correction with a solvent, 480 nm absorbance of each astaxanthin solution was measured, and calibration curves were drawn. The concentration of water soluble astaxanthin solution was found from the 480 nm absorbance measurement value of the water soluble astaxanthin solution based thereon. […] Solubilization of lycopene and canthaxanthin was confirmed by filtration with a 0.45 μm filter.

| Molecule | tear volume (relative to normal tear volume) (dry eye mouse model) | goblet cell count [1] | solubilization in aqueous solvent (remains in filtrate after filtration) [2] |
| --- | --- | --- | --- |
| CC1=C(/C=C/C(C)=C/C=C/C(C)=C/C=C/C=C(C)/C=C/C=C(C)/C=C/C2=C(C)C(=O)[C@@H](O)CC2(C)C)C(C)(C)C[C@H](O)C1=O [astaxanthin] | increased only slightly | recovery in the goblet cell count was not observed | – |
| canthaxanthin | – | – | Successful water-solubilization |
